# Assay results as given in US7618816B2, “Metal-binding therapeutic peptides” (Ontherix, Inc., priority 2005, dated 2009).
# Where no end group is shown, it is not given here.
# Assays:
# Assay in all cases: Uptake of SA-HRP::MBD peptide complexes
# Assay type in all cases: cell-based, human
# A2780 = conditions: for SA-HRP uptake, Cyt.: A2780, cytoplasmic; for SA-HRP uptake, Nuc.: A2780, nuclear
# Method: (§1) HEK293 kidney cell line and 54 tumor cell lines obtained from the National Cancer Institute and passaged in RPMI1640 cell culture medium supplemented with 10% fetal bovine serum and 10 uM FeCl2. Uptake of streptavidin-horseradish peroxidase (SA-HRP) conjugate and of various SA-HRP::MBD peptide complexes was determined as described (Singh et al. J Biol Chem. 279 (1):477-87 [2004]) using biotinylated MBD9 ([…]) (SEQ ID NO: 10) and MBD21 ([…]) (SEQ ID NO: 4) peptides and SA-HRP. Nuclear and cytoplasmic localization of these proteins was also determined in each case. […] In order to establish the underlying molecular mechanism for this variability, we cross-linked MBD21 peptide to the following cell surface markers at 4 degrees Celsius as previously described (Singh et al. J Biol Chem. 279 (1):477-87 [2004]): transferrin receptor 1, caveolin 1, PCNA, integrins alpha v, 2, 5 and 6, integrins beta 1, 3 and 5. […] Based on the strength of these correlations, it was possible to derive crude predictive formulae for MBD-mediated uptake based on the rate of cross-linking to surface markers. Such predictive formulas could form the basis for a diagnostic procedure to select appropriate targets for MBD-based therapies.
# A498 = conditions: for SA-HRP uptake, Cyt.: A498, cytoplasmic; for SA-HRP uptake, Nuc.: A498, nuclear
# Method: as §1
# BT-549 = conditions: for SA-HRP uptake, Cyt.: BT-549, cytoplasmic; for SA-HRP uptake, Nuc.: BT-549, nuclear
# Method: as §1
# CAKI-1 = conditions: for SA-HRP uptake, Cyt.: CAKI-1, cytoplasmic; for SA-HRP uptake, Nuc.: CAKI-1, nuclear
# Method: as §1
# HCC 2998 = conditions: for SA-HRP uptake, Cyt.: HCC 2998, cytoplasmic; for SA-HRP uptake, Nuc.: HCC 2998, nuclear
# Method: as §1
# HCT-116 = conditions: for SA-HRP uptake, Cyt.: HCT-116, cytoplasmic; for SA-HRP uptake, Nuc.: HCT-116, nuclear
# Method: as §1
# HOP 18 = conditions: for SA-HRP uptake, Cyt.: HOP 18, cytoplasmic; for SA-HRP uptake, Nuc.: HOP 18, nuclear
# Method: as §1
# HT-29 = conditions: for SA-HRP uptake, Cyt.: HT-29, cytoplasmic; for SA-HRP uptake, Nuc.: HT-29, nuclear
# Method: as §1
# KM12 = conditions: for SA-HRP uptake, Cyt.: KM12, cytoplasmic; for SA-HRP uptake, Nuc.: KM12, nuclear
# Method: as §1
# LOVO = conditions: for SA-HRP uptake, Cyt.: cytoplasmic; for SA-HRP uptake, Nuc.: nuclear
# Method: as §1
# MCF 7 = conditions: for SA-HRP uptake, Cyt.: MCF 7, cytoplasmic; for SA-HRP uptake, Nuc.: MCF 7, nuclear
# Method: as §1
# NCI-H226 = conditions: for SA-HRP uptake, Cyt.: NCI-H226, cytoplasmic; for SA-HRP uptake, Nuc.: NCI-H226, nuclear
# Method: as §1
# NCI-H23 = conditions: for SA-HRP uptake, Cyt.: NCI-H23, cytoplasmic; for SA-HRP uptake, Nuc.: NCI-H23, nuclear
# Method: as §1
# NCI-H460 = conditions: for SA-HRP uptake, Cyt.: NCI-H460, cytoplasmic; for SA-HRP uptake, Nuc.: NCI-H460, nuclear
# Method: as §1
# NCI-H522 = conditions: for SA-HRP uptake, Cyt.: NCI-H522, cytoplasmic; for SA-HRP uptake, Nuc.: NCI-H522, nuclear
# Method: as §1
# OVCAR-3 = conditions: for SA-HRP uptake, Cyt.: OVCAR-3, cytoplasmic; for SA-HRP uptake, Nuc.: OVCAR-3, nuclear
# Method: as §1
# OVCAR-4 = conditions: for SA-HRP uptake, Cyt.: OVCAR-4, cytoplasmic; for SA-HRP uptake, Nuc.: OVCAR-4, nuclear
# Method: as §1
# OVCAR-8 = conditions: for SA-HRP uptake, Cyt.: OVCAR-8, cytoplasmic; for SA-HRP uptake, Nuc.: OVCAR-8, nuclear
# Method: as §1
# PC-3 = conditions: for SA-HRP uptake, Cyt.: PC-3, cytoplasmic; for SA-HRP uptake, Nuc.: PC-3, nuclear
# Method: as §1
# SK-0V-3 = conditions: for SA-HRP uptake, Cyt.: SK-0V-3, cytoplasmic; for SA-HRP uptake, Nuc.: SK-0V-3, nuclear
# Method: as §1
# SW-620 = conditions: for SA-HRP uptake, Cyt.: SW-620, cytoplasmic; for SA-HRP uptake, Nuc.: SW-620, nuclear
# Method: as §1
# TK-10 = conditions: for SA-HRP uptake, Cyt.: TK-10, cytoplasmic; for SA-HRP uptake, Nuc.: TK-10, nuclear
# Method: as §1
# UO-31 = conditions: for SA-HRP uptake, Cyt.: UO-31, cytoplasmic; for SA-HRP uptake, Nuc.: UO-31, nuclear
# Method: as §1
sequence,measurement,setting,value
KKGFYKKKKQCRPSKGRKRGFCWNGRK [MBD9],"SA-HRP uptake, Cyt.",A2780,20.7 ng
same,"SA-HRP uptake, Nuc.",A2780,2.8 ng
same,"SA-HRP uptake, Cyt.",A498,28.5 ng
same,"SA-HRP uptake, Nuc.",A498,12.4 ng
same,"SA-HRP uptake, Cyt.",BT-549,7.2 ng
same,"SA-HRP uptake, Nuc.",BT-549,2.1 ng
same,"SA-HRP uptake, Cyt.",CAKI-1,7.4 ng
same,"SA-HRP uptake, Nuc.",CAKI-1,1.8 ng
same,"SA-HRP uptake, Cyt.",HCC 2998,4.6 ng
same,"SA-HRP uptake, Nuc.",HCC 2998,3.7 ng
same,"SA-HRP uptake, Cyt.",HCT-116,14.1 ng
same,"SA-HRP uptake, Nuc.",HCT-116,4.4 ng
same,"SA-HRP uptake, Cyt.",HOP 18,16.6 ng
same,"SA-HRP uptake, Nuc.",HOP 18,8.1 ng
same,"SA-HRP uptake, Cyt.",HT-29,6.1 ng
same,"SA-HRP uptake, Nuc.",HT-29,7.7 ng
same,"SA-HRP uptake, Cyt.",KM12,3.6 ng
same,"SA-HRP uptake, Nuc.",KM12,1.0 ng
same,"SA-HRP uptake, Cyt.",LOVO,12.6 ng
same,"SA-HRP uptake, Nuc.",LOVO,5.4 ng
same,"SA-HRP uptake, Cyt.",MCF 7,26.7 ng
same,"SA-HRP uptake, Nuc.",MCF 7,19.8 ng
same,"SA-HRP uptake, Cyt.",NCI-H226,2.6 ng
same,"SA-HRP uptake, Nuc.",NCI-H226,1.8 ng
same,"SA-HRP uptake, Cyt.",NCI-H23,10.8 ng
same,"SA-HRP uptake, Nuc.",NCI-H23,6.6 ng
same,"SA-HRP uptake, Cyt.",NCI-H460,30.3 ng
same,"SA-HRP uptake, Nuc.",NCI-H460,5.6 ng
same,"SA-HRP uptake, Cyt.",NCI-H522,9.1 ng
same,"SA-HRP uptake, Nuc.",NCI-H522,3.7 ng
same,"SA-HRP uptake, Cyt.",OVCAR-3,2.4 ng
same,"SA-HRP uptake, Nuc.",OVCAR-3,4.6 ng
same,"SA-HRP uptake, Cyt.",OVCAR-4,9.9 ng
same,"SA-HRP uptake, Nuc.",OVCAR-4,2.7 ng
same,"SA-HRP uptake, Cyt.",OVCAR-8,3.9 ng
same,"SA-HRP uptake, Nuc.",OVCAR-8,5.0 ng
same,"SA-HRP uptake, Cyt.",PC-3,23.2 ng
same,"SA-HRP uptake, Nuc.",PC-3,8.5 ng
same,"SA-HRP uptake, Cyt.",SK-0V-3,2.0 ng
same,"SA-HRP uptake, Nuc.",SK-0V-3,0.4 ng
same,"SA-HRP uptake, Cyt.",SW-620,3.2 ng
same,"SA-HRP uptake, Nuc.",SW-620,0.7 ng
same,"SA-HRP uptake, Cyt.",TK-10,4.0 ng
same,"SA-HRP uptake, Nuc.",TK-10,1.3 ng
same,"SA-HRP uptake, Cyt.",UO-31,4.6 ng
same,"SA-HRP uptake, Nuc.",UO-31,1.0 ng
"KKGFYKKKQCRPSKGRKRGFCWAVDKYG (cysteine pairing not given here; also: biotinylated (position not given here), complexed with SA-HRP) [MBD21]","SA-HRP uptake, Cyt.",A2780,7.5 ng
same,"SA-HRP uptake, Nuc.",A2780,1.0 ng
same,"SA-HRP uptake, Cyt.",A498,35.3 ng
same,"SA-HRP uptake, Nuc.",A498,33.4 ng
same,"SA-HRP uptake, Cyt.",BT-549,4.8 ng
same,"SA-HRP uptake, Nuc.",BT-549,3.3 ng
same,"SA-HRP uptake, Cyt.",CAKI-1,2.8 ng
same,"SA-HRP uptake, Nuc.",CAKI-1,1.0 ng
same,"SA-HRP uptake, Cyt.",HCC 2998,2.1 ng
same,"SA-HRP uptake, Nuc.",HCC 2998,2.4 ng
same,"SA-HRP uptake, Cyt.",HCT-116,12.4 ng
same,"SA-HRP uptake, Nuc.",HCT-116,9.5 ng
same,"SA-HRP uptake, Cyt.",HOP 18,10.3 ng
same,"SA-HRP uptake, Nuc.",HOP 18,3.1 ng
same,"SA-HRP uptake, Cyt.",HT-29,3.5 ng
same,"SA-HRP uptake, Nuc.",HT-29,9.5 ng
same,"SA-HRP uptake, Cyt.",KM12,2.1 ng
same,"SA-HRP uptake, Nuc.",KM12,0.7 ng
same,"SA-HRP uptake, Cyt.",LOVO,8.7 ng
same,"SA-HRP uptake, Nuc.",LOVO,3.8 ng
same,"SA-HRP uptake, Cyt.",MCF 7,11.1 ng
same,"SA-HRP uptake, Nuc.",MCF 7,5.8 ng
same,"SA-HRP uptake, Cyt.",NCI-H226,0.7 ng
same,"SA-HRP uptake, Nuc.",NCI-H226,0.9 ng
same,"SA-HRP uptake, Cyt.",NCI-H23,8.0 ng
same,"SA-HRP uptake, Nuc.",NCI-H23,8.7 ng
same,"SA-HRP uptake, Cyt.",NCI-H460,11.6 ng
same,"SA-HRP uptake, Nuc.",NCI-H460,5.8 ng
same,"SA-HRP uptake, Cyt.",NCI-H522,5.1 ng
same,"SA-HRP uptake, Nuc.",NCI-H522,1.7 ng
same,"SA-HRP uptake, Cyt.",OVCAR-3,<0.04 ng
same,"SA-HRP uptake, Nuc.",OVCAR-3,3.2 ng
same,"SA-HRP uptake, Cyt.",OVCAR-4,6.1 ng
same,"SA-HRP uptake, Nuc.",OVCAR-4,1.3 ng
same,"SA-HRP uptake, Cyt.",OVCAR-8,6.1 ng
same,"SA-HRP uptake, Nuc.",OVCAR-8,13.1 ng
same,"SA-HRP uptake, Cyt.",PC-3,44.2 ng
same,"SA-HRP uptake, Nuc.",PC-3,13.2 ng
same,"SA-HRP uptake, Cyt.",SK-0V-3,<0.04 ng
same,"SA-HRP uptake, Nuc.",SK-0V-3,<0.04 ng
same,"SA-HRP uptake, Cyt.",SW-620,6.3 ng
same,"SA-HRP uptake, Nuc.",SW-620,2.3 ng
same,"SA-HRP uptake, Cyt.",TK-10,5.0 ng
same,"SA-HRP uptake, Nuc.",TK-10,2.2 ng
same,"SA-HRP uptake, Cyt.",UO-31,1.3 ng
same,"SA-HRP uptake, Nuc.",UO-31,3.3 ng
